Reference: patent US12371453B2, “Polypeptide having antibacterial activity, composition for preventing or treating sepsis comprising same, and antibacterial composition” (priority 2019, dated 2025)
Values after ≈ are worked out from the molar mass of the structure shown. Square brackets hold non-standard residues; d marks the D form. Ends that are not written are not given here. Peptide text beside a SMILES is read from it.

How the values were obtained:
[1] = LPS binding affinity by Isothermal Titration Calorimeter (ITC); parameters: species or system E. coli K1; conditions: for LPS binding affinity (in words): compared with FP1 (wild type, WT); for Kd: peptide binding to LPS, read-out: Kd (calculated by ITC)
Description: FPT (ADK 44-54) is denoted by wild type (WT), and peptides in which a point mutation occurred at various sites in WT were manufactured (FP3, FP5, FP6, and FP9). To increase the interaction with LPS in a residue sequence of FP3, peptides were designed based on FP3- and LPS-binding models (FP12-NH2 and FP13-NH2), and peptides were designed by additionally introducing a non-natural amino acid and an amino acid isomer (allomeric D-type amino acid) (allD FP12-NH2, allD FP13-NH2, allD FP-13-9a, allD FP-13-9w, allD FP-13-9k, and allD FP13-NH2 (AcOH)). In addition, an N-terminus PEGylated peptide (PEG-alld FP13-NH2 (AcOH)) was additionally designed, synthesized, and provided by ANYGEN, Co. Ltd. The binding affinity between each of the provided peptides and lipopolysaccharide (LPS) was confirmed through measuring the binding affinity (Kd) using Isothermal Titration Calorimeter (ITC).
Specifically, a method of analyzing binding affinity (Kd) between a peptide and LPS is as follows.
Measurement was carried out using a Malvern MicroCal PEAQ-ITC cell instrument, and the following pretreatment was carried out to confirm interaction with LPS. The amount and morphology of a sample cell are 300 μL and coin-shaped, fixed-in-place, respectively; a syringe rotation rate was 1,200 rpm; and a temperature was 30° C., 35° C. or 25° C.
Before the experiment, LPS and the peptide were previously diluted with PBS, thereby preparing 2 mM LPS and 0.2 mM peptide. 300 μL of the peptide was added into cells in the ITC instrument, which had been washed, and 40 μL of LPS was put into a syringe. After measurement conditions for ITC (temperature, number of injections) were set, the syringe was inserted into the cell, and ITC measurement was started. When the measurement was completed, analysis is performed, and the Kd values of LPS and the peptide were calculated.

[2] = system: Carbapenem resistant (CR)-Acinetobactor baumannii; assay: organism not typed
Method: (§1) The antibacterial activity was evaluated according to an antibacterial activity test method for measuring the minimum inhibitory concentration 50 (MIC50; the minimal concentration that kills 50% of bacteria).
(§2) More specifically, 100 μL of a medium was dispensed into each well of a 96-well plate, and in the first column, an antibiotic and a peptide in 200 μL of the medium were dispensed. 1/2 serial dilution was performed from columns 1 to 11 and five types of antibiotic-resistant bacteria (ESBL-resistant E. coli, carbapenem-resistant A. baumannii, carbapenem-resistant Klebsiella pneumoniae, carbapenem-resistant Pseudomonas aeruginosa, colistin-resistant Acinetobactor baumannii), which had been previously cultured, were diluted (OD600 nm value in dilution: approximately 0.0025) and dispensed into each well. The plate was incubated in a 37° C. incubator for 4 hours, and measured at OD600 nm.

[3] = Calcein dye leakage from liposome mimicking gram-negative bacterial cell membrane; assay type: biochemical; conditions: calcein-encapsulated liposome
Method: (§3) To study an action mechanism for FP12-NH2, FP13-NH2, allD FP12-NH2, and allD FP13-NH2 peptides, the disruption ability of the peptides against liposomes mimicking a bacterial cell membrane and a red blood cell membrane was measured.
(§4) EYPG is an abbreviation for egg yolk L-α-phosphatidyl-DL-glycerol, and EYPC is an abbreviation for egg yolk 1,2-diacyl-sn-glycero-3-phosphocholine. CH is an abbreviation for cholesterol. After dissolving the phospholipids composed according to the content of each component in chloroform, the chloroform was removed using a rotary evaporator, and lyophilization was performed overnight. Afterward, the dried lipid film was dissolved in a Tris-buffer solution, and calcein […]. After repeated freezing and thawing, the calcein-encapsulated liposome was manufactured using an extruder. Subsequently, after an excitation wavelength of a spectrofluorimeter (Shimadzu RF 5301 PC spectrofluorimeter, Japan) was set to 490 nm, and an emission wavelength was set to 520 nm, the peptide was administered to the liposome to measure relative dye leakage, provided that a 100% dye leakage was expressed as fluorescence intensity when 0.010% Triton-X100 was added.
(§5) The upper graphs of FIG. 3 show the % dye leakage for an EYPC/EYPG (7:3, w/w) liposome mimicking bacterial cells, encapsulating a fluorescent dye, calcein, by a peptide according to a peptide concentration. […] The lower graphs of FIG. 3 show the % dye leakage for an EYPC/CH (10:1, w/w) liposome, which is […] mimicking a human red blood, encapsulating a fluorescent dye, calcein, by a peptide according to a peptide concentration.

A. baumannii = assay type: cell-based
[4] = Calcein dye leakage from liposome mimicking gram-positive bacterial cell membrane; assay type: biochemical; conditions: calcein-encapsulated liposome
Method: To study the action mechanisms for FPT2-NH2, FPT3-NH2, allD FPT2-NH2, and allD FP13-NH2 peptides, the disruption ability of the peptides against a liposome mimicking a bacterial cell membrane was measured.

[5] = system: trypsin, protease K, and chymotrypsin; conditions: read out by antibacterial activity
[6] = Calcein dye leakage from liposome mimicking human red blood cell membrane; assay type: biochemical; conditions: calcein-encapsulated liposome
Method: as §3, §4, §5

[7] = system: Colistin resistant AB (Acinetobactor baumannii)
Method: as §1, §2

CR-Klebsiella pneumoniae = conditions: CR-
Method: as §1, §2

ESBL (E. coli) = conditions: ESBL
Method: as §1, §2

E. coli = assay type: cell-based
[8] = In vivo toxicity, survival rate (Example 9); parameters: species or system ICR mice; conditions: mouse, ip, mice, intraperitoneal six times, survival for 72 hours
Method: To confirm the therapeutic and pharmaceutical effects of an acetate salt substitution of allD FP13-NH2, a septic animal model induced by intraperitoneally administering each of the Escherichia coli (standard strain and ESBL) strains or a normal mouse was treated with the peptide allD FP13-NH2 (AcOH). The antibiotic effect, the toxicity, and the inhibitory activity of […] cytokine IL-6 of the salt substitution with those of the same peptide at the end of trifluoroacetic acid (TFA) were compared.
Six-week-old female ICR mice (SPF mice, Samtako) with an average body weight of 25 g were used as experimental animals. The experimental animals were provided with sterile feed and water and bred with less than 10 mice per cage, and a day/night cycle was 12 hours.
To evaluate in vivo toxicity, the mice were divided into groups (n=5 or 6 per group) per experiment, and intraperitoneally treated six times with allD FP13-NH2 (TFA) and allD FP13-NH2 (AcOH) mixed with […]'S DEX solution (vehicle) at 0, 1, 2, 3, 4, or 5 hours, followed by observing a survival rate at intervals of 12 hours for 72 hours.

Compound | LPS binding affinity (in words) [1] | Kd [1] [µM] | MIC50, Carbapenem resistant (CR)-Acinetobactor baumannii [2] [µg/mL] | dye leakage, PC/PG (7:3, w/w) liposome mimicking a bacteria cell membrane [3] | MIC50 (A. baumannii) [µM] | MIC90 (A. baumannii) [µM] | dye leakage, EYPG/EYPC (6:4, w/w) liposome mimicking gram-positive bacterial cell membrane [4] | resistance to the proteolytic enzyme [5] | dye leakage, PC/CH liposome mimicking a red blood cell membrane [6] | MIC50 (S. aureus) [µM] | MIC90 (S. aureus) [µM] | MIC50, Colistin resistant AB [7] [µg/mL] | MIC50, CR-Klebsiella pneumoniae (CR-Klebsiella pneumoniae) [µg/mL] | MIC50, ESBL (E. coli) (ESBL (E. coli)) [µg/mL] | MIC50 (E. coli) [µM] | MIC90 (E. coli) [µM] | LD50 [8] [mg/kg]
CC(C)C[C@@H](NC(=O)[C@H](N)CCCNC(=N)N)C(=O)N[C@H](CCCNC(=N)N)C(=O)N[C@@H](C(=O)N[C@H](CCCCN)C(=O)N[C@H](CC(C)C)C(=O)N[C@H](CCCNC(=N)N)C(=O)N[C@H](CCCNC(=N)N)C(=O)N[C@H](Cc1ccc(O)cc1)C(=O)N[C@H](CC(C)C)C(=O)N[C@H](CCCNC(=N)N)C(N)=O)C(C)C [allD FP12-NH2] (H-[dR][dL][dR][dV][dK][dL][dR][dR][dY][dL][dR]-NH2; N-terminus assumed) | strong LPS binding affinity | 26.6 | <4 | high dye leakage | 4 (≈ 6.11 µg/mL) | 8 (≈ 12.2 µg/mL) | high dye leakage | much improved resistance | almost no dye leakage | 4 (≈ 6.11 µg/mL) | 8 (≈ 12.2 µg/mL) | <16 | <32 | <0.5 | 2 (≈ 3.06 µg/mL) | 4 (≈ 6.11 µg/mL) | 
CC(C)C[C@@H](NC(=O)[C@H](N)CCCCN)C(=O)N[C@H](CCCNC(=N)N)C(=O)N[C@@H](C(=O)N[C@H](CCCCN)C(=O)N[C@H](CC(C)C)C(=O)N[C@H](CCCNC(=N)N)C(=O)N[C@H](CCCNC(=N)N)C(=O)N[C@H](Cc1ccc(O)cc1)C(=O)N[C@H](CC(C)C)C(=O)N[C@H](CCCNC(=N)N)C(N)=O)C(C)C [allD FP13-NH2 (AcOH)] (H-[dK][dL][dR][dV][dK][dL][dR][dR][dY][dL][dR]-NH2; N-terminus assumed) |  |  | <1 |  |  |  |  |  |  |  |  | <16 | <32 | <1 |  |  | 80
KLRVKLRRYLR-NH2 [FP13-NH2] | strong LPS binding affinity | 118 | <8 | high dye leakage |  |  | high dye leakage |  | almost no dye leakage |  |  | <32 | <16 | <1 |  |  | 
RLRVKLRRYLR-NH2 [FP12-NH2] | strong LPS binding affinity | 0.242 | <4 | high dye leakage |  |  | high dye leakage |  | almost no dye leakage |  |  | <16 | <8 | <0.5 |  |  | 
